Here are results for twelve compounds from US20090186900A1, “COMPOUND” (priority 2006, published 2009).

In data set [1] the target is T1, DHA-STS (Rattus norvegicus, UniProt P15589).
T1 construct: from tissue; host or cells: rat liver
T1 sequence (P15589 20-577): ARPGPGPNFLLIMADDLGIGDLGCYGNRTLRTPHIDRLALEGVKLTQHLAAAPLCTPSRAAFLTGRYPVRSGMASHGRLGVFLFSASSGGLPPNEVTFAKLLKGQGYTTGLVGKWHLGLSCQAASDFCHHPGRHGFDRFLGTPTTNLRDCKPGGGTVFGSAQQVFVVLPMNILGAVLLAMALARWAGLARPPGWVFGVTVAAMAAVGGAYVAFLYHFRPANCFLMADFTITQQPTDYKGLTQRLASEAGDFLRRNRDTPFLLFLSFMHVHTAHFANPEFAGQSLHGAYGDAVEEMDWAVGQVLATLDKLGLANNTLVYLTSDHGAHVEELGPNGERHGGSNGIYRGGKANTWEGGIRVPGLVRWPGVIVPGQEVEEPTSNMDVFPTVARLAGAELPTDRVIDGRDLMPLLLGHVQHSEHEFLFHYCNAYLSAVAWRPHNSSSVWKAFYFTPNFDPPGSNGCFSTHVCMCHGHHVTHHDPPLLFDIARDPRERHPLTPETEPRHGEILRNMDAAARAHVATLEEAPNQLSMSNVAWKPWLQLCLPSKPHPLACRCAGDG
The conditions noted are these: administered either orally or subcutaneously; cited from earlier work.

Data set [2] has as its target T2, rat liver E1-STS (Rattus norvegicus, UniProt P15589).
T2 construct: from tissue; host or cells: rat liver
T2 sequence (P15589 20-577): T1 sequence (P15589 20-577)
Conditions: administered either orally or subcutaneously; cited from earlier work.

The subject of data set [3] is rats. The conditions noted are these: cited from earlier work.
The target of data set [4] is T3, E1-STS (Homo sapiens, UniProt P08842).
T3 construct: endogenous in cells; host or cells: MCF-7 human breast cancer cells
T3 sequence (P08842 22-583): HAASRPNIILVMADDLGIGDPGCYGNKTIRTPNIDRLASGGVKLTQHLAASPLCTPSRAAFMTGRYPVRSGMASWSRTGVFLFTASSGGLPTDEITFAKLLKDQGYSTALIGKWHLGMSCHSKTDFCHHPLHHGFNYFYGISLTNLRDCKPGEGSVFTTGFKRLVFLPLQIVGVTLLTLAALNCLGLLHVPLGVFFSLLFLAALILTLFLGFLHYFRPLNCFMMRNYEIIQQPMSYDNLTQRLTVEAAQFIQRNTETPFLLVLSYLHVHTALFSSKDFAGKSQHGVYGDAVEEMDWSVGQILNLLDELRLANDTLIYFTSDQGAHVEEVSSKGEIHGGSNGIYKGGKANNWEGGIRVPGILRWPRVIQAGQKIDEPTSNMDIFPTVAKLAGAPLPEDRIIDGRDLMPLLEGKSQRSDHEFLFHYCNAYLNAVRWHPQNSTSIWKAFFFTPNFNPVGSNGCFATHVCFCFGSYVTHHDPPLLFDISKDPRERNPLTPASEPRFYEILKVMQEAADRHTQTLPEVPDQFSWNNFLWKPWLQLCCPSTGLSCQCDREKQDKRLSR
The conditions noted are these: intact MCF-7 cells, at 0.1 mM; cited from earlier work.

The melting point is the temperature of the solid-liquid transition. As to `CCc1cc(-c2ccc(C(=O)CCC(=O)NCCO)cc2)ccc1O` [Compound 37, 4-(3′-Ethyl-4′-hydroxy-biphenyl)-4-oxo-N-(2-hydroxyethyl)-butyramide], the melting point is > 110 °C (dec.).
For the compound `CC(=O)c1ccc(Oc2cccnc2)cc1` [Compound 135, 1-(4-(Pyridin-3-yloxy)phenyl)ethanone], the melting point is 45 to 50 °C.
The same measure, in the same setting: in the case of `CCc1cc(-c2ccc(-c3cc[nH]n3)cc2)ccc1OC` [Compound 44, 3-(3′-Ethyl-4′-methoxy-biphenyl-4-yl)-1H-pyrazole] it was 164 to 168 °C.
For `CCc1cc(-c2ccc(-c3cc(CCC(=O)NCc4cccnc4)[nH]n3)cc2)ccc1O` [Compound 66, 3-[5-(3′-Ethyl-4′-hydroxy-biphenyl-4-yl)-2H-pyrazol-3-yl]-N-pyridin-3-ylmethyl-propionamide], the melting point fell in the range of 210 to 214 °C.
Still for that read-out and setting: in the case of `CCc1cc(-c2ccc(-c3ccnn3C)cc2)ccc1OC` [Compound 46, 5-(3′-Ethyl-4′-methoxy-biphenyl-4-yl)-1-methyl-1H-pyrazole] it was 97 to 100 °C; in that of `CCc1cc(-c2ccc(-c3ccn(C)n3)cc2)ccc1OC` [Compound 45, 3-(3′-Ethyl-4′-methoxy-biphenyl-4-yl)-1-methyl-1H-pyrazole], 167 to 170 °C.
`C[C@]12CC[C@@H]3c4ccc(OS(N)(=O)=O)cc4CC[C@H]3[C@@H]1CCC2=O` [EMATE, oestrone-3-sulphamate]: in data set [1], the “inhibition of rat liver DHA-STS activity” value is listed as 99%. Besides, the “inhibition of rat liver E1-STS activity” value in data set [2] was 99%. In data set [3], the “oral uterotrophic activity relative to oestradiol” value is given as 100 times. For the same compound, in data set [4], the “inhibition of E1-STS activity” value is recorded as “more than 99%”.
`O=C(CCC(=O)c1ccc(Oc2ccc(O)cc2)cc1)NCc1cccnc1` [Compound 118, 4-(4-(4-Hydroxyphenoxy)phenyl)-4-oxo-N-((pyridin-3-yl)methyl)butanamide]: the melting point was > 191 °C (dec.).
Compound `CCc1cc(-c2ccc(-c3ccn(CC(=O)OC)n3)cc2)ccc1OC` [Compound 48, [3-(3′-Ethyl-4′-methoxy-biphenyl-4-yl)-pyrazol-1-yl]-acetic Acid Methyl Ester] yielded a melting point of 116 to 120 °C.
Same read-out and setting: to `CC(=O)c1ccc(Oc2ccc(O)cc2)cc1` [Compound 129, 1-(4-(4-Hydroxyphenoxy)phenyl)ethanone] belongs 159 to 161 °C; to `CCc1cc(-c2ccc(C(C)=O)cc2)ccc1OC` [Compound 38, 1-(3′-Ethyl-4′-methoxy-biphenyl-4-yl)-ethanone], 69 to 72 °C; to `CCc1cc(Oc2ccc(C(C)=O)cc2)ccc1OC` [Compound 140, 1-(4-(3-Ethyl-4-methoxyphenoxy)phenyl)ethanone], 53 to 56 °C.
